Counter-ions that a name gives are not always drawn.
How the values were obtained:
Human recombinant MMP-1 = target: T1, Human recombinant MMP-1 (Homo sapiens, UniProt P03956); test: In vitro MMP inhibition, IC50 determination (fluorogenic substrate I); assay type: biochemical
T1 construct: made in house; host or cells: MMP-1-transfected HT-1080 cells (spent media)
T1 sequence (P03956 100-469): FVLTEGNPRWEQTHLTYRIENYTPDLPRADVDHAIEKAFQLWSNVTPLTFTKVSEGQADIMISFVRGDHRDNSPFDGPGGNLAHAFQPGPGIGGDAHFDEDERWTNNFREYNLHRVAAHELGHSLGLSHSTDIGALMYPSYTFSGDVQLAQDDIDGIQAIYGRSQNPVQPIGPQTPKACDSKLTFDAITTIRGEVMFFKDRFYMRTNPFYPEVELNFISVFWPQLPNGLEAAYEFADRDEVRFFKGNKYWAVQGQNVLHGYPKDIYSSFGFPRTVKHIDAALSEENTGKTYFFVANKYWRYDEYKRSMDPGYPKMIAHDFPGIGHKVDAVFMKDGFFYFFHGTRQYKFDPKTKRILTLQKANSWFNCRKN
Method in brief: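 APMA- or trypsin-activated enzyme, purified from spent media of transfected HT-1080 cells, incubated at room temperature with 4 μM MCA-Pro-Leu-Gly-Leu-Dpa-Ala-Arg-NH2 and graded inhibitor in Tris buffer pH 7.5 (10 mM CaCl2, 0.05% Brij). Cleavage read by fluorescence (ex 328/em 415 nm); IC50 from fluorescence reduction versus inhibitor concentration.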

Human recombinant MMP-2 = target: T2, Human recombinant MMP-2 (Homo sapiens, UniProt P08253); test: In vitro MMP inhibition, Ki determination (fluorogenic substrate II); assay type: biochemical
T2 construct: made in house; host or cells: MMP-2-transfected p2AHT2 cells
T2 sequence (P08253 110-660): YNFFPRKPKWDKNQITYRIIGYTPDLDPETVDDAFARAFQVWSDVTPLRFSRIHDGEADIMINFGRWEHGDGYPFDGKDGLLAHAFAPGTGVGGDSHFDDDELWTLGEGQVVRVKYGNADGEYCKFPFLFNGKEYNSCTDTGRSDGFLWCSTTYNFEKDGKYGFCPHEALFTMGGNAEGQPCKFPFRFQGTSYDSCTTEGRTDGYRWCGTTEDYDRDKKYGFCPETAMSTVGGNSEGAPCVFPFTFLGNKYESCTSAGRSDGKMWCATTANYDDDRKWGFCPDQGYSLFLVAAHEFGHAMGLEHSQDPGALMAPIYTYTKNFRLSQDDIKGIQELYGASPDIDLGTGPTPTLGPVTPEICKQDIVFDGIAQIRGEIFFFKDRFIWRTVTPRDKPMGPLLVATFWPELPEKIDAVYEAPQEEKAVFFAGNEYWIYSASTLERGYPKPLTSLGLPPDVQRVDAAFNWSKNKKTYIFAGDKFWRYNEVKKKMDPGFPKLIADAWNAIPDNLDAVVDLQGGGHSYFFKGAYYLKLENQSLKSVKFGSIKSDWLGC
Experimental: Several hydroxamates and salts thereof were analyzed in in vitro assays to determine their ability to inhibit the MMP cleavage of peptide substrates. Inhibition (Ki) and IC50 constants were calculated from the assayed hydroxamate-MMP interactions.
Human recombinant MMP-1, MMP-2, MMP-9, MMP-13, and MMP-14 were used in this assay. All enzymes were prepared in Assignee's laboratories following usual laboratory procedures. Protocols for the preparation and use of these enzymes are available in the scientific literature. See, e.g., Enzyme Nomenclature (Academic Press, San Diego, Calif., 1992) (and the citations therein). See also, Frije et al., J. Biol. Chem., 26(24), 16766-73 (1994).
The MMP-2 proenzyme was purified by gelatin Sepharose chromatography from MMP-2-transfected p2AHT2 cells provided by Dr. Gregory Goldberg of Washington University (St. Louis, Mo.).
All MMPs were activated using 4-aminophenylmercuric acetate (“APMA”, Sigma Chemical, St. Louis, Mo.) or trypsin. MMP-9 also was activated using human recombinant MMP-3 (purified in Assignee's laboratory following standard cloning and purification techniques).
Two fluorogenic, methoxycoumarin-containing polypeptide substrates were used in the MMP inhibition assays:
MCA-ArgProLeuGlyLeuDpaAlaArgGluArgNH2 (II)
Here, “Dpa” is 3-(2,4-dinitrophenyl)-L-2,3-diaminopropionyl group, and “MCA” is 7-methoxycoumarin-4-yl acetyl. Substrate (I) was purchased from Baychem (Redwood City, Calif.), and substrate II was prepared Assignee's laboratory. Substrate I was used in the IC50 determination assays, while substrate II was used in the Ki determination assays. In the absence of MMP inhibitory activity, either substrate is cleaved at the Gly-Leu peptide bond. This cleavage separates the highly fluorogenic peptide from the 2,4-dinitrophenyl quencher, thus resulting in increase of fluorescent intensity.
The stock solutions of the assayed hydroxamates (or salts thereof) were prepared in 1% dimethyl sulfoxide (DMSO). These stock solutions were diluted in Buffer A (100 mM Tris-HCl, 100 mM NaCl, 10 mM CaCl2, 0.05% polyoxyethylene 23 lauryl ether, pH 7.5) to obtain solutions with different hydroxamate concentrations, i.e., assay solutions with different concentrations of the assayed MMP inhibitory compound. The experiment controls contained the same amount of Buffer A/DMSO as the assayed sample, but contained no hydroxamate (or salt thereof).
The assays from which the Ki determinations were made were performed as follows. The assayed hydroxamate samples were incubated in separate wells of untreated white polystyrene plates (Nunc Nalgene International, Rochester, N.Y.), and analyzed on a Tecan SpectraFlour Plus plate reader. The excitation wavelength was 330 nm, and the emission wavelength—420 nm. All samples (assayed hydroxamates and controls) were incubated in separate plate wells at room temperature for 1 hr in the presence of 4 μM of MMP substrate (II). In the absence of MMP inhibitory activity, substrate II was cleaved at the Gly-Leu bond resulting in an increase of relative fluorescence. Inhibition was observed as a reduced rate of this increase in relative fluorescence. The various hydroxamates were analyzed using a single low enzyme concentration with a single substrate concentration fixed at or below the Km. This protocol is a modification of method by Knight et al., FEBS Lett., 296(3), 263-266 (1992). Apparent inhibitory constants were determined by non-linear regression of reaction velocity as a function of inhibitor and enzyme concentration using Morrison's equation, as described by Kuzmic, Anal. Biochem. 286, 45-50 (2000). […] Since the substrate concentration was chosen to be at or below the Km, the apparent Ki's from this analysis were reported as Ki's without correction for the influence of substrate.

[1] = substrate (I) 4 μM, room temperature, values not in parenthesis
[2] = substrate (II) 4 μM, 1 hr room temperature, apparent Ki, values in parenthesis

IC50 (Human recombinant MMP-1; value outside parenthesis)	Ki (Human recombinant MMP-2; value in parenthesis)	SMILES	other results
> 10 µM	149 nM	CC(C)C(=O)c1cccc(CCCOc2ccc(S(=O)(=O)C3(C(=O)NO)CCOCC3)cc2)c1 [Example 95]	–
> 10 µM	42.3 nM	O=C(NO)C1(S(=O)(=O)c2ccc(OCCc3cccc(-c4ccncc4)c3)cc2)CCOCC1 [Example 113]	–
2.94 µM	51.3 nM	O=C(NO)C1(S(=O)(=O)c2ccc(OCCc3cccc(-c4cccnc4)c3)cc2)CCOCC1 [Example 125]	–
> 10 µM	2160 nM	Cc1ccc(-c2cccc(CCOc3ccc(S(=O)(=O)C4(C(=O)NO)CCOCC4)cc3)c2)cc1 [Example 127]	–
> 10 µM	159 nM	O=C(NO)C1(S(=O)(=O)c2ccc(OCCCc3cccc(-c4cccnc4)c3)cc2)CCOCC1 [Example 150]	–
> 10 µM	33.9 nM	O=C(NO)C1(S(=O)(=O)c2ccc(OCCCc3cccc(Br)c3)cc2)CCOCC1 [Example 154]	–
> 10 µM	419 nM	O=C(NO)C1(S(=O)(=O)c2ccc(OCCOc3cccc(-c4ccccc4)c3)cc2)CCOCC1 [Example 157]	–
> 10 µM	> 10000 nM	CC(C)c1ccc(-c2cccc(CCCOc3ccc(S(=O)(=O)C4(C(=O)NO)CCOCC4)cc3)c2)cc1 [Example 160]	–
> 10 µM	1760 nM	O=C(NO)C1(S(=O)(=O)c2ccc(OCCCc3cccc(-c4cccc(F)c4)c3)cc2)CCOCC1 [Example 161]	–
> 10 µM	1010 nM	O=C(NO)C1(S(=O)(=O)c2ccc(OCCCc3cccc(-c4ccccc4F)c3)cc2)CCOCC1 [Example 163]	–
> 10 µM	15.8 nM	O=C(CCCOc1ccc(S(=O)(=O)C2(C(=O)NO)CCOCC2)cc1)Nc1cccc(OC(F)(F)F)c1 [Example 181]	–
> 10 µM	34.3 nM	CC(C)c1cccc(NC(=O)CCCOc2ccc(S(=O)(=O)C3(C(=O)NO)CCOCC3)cc2)c1 [Example 182]	–
> 10 µM	30.7 nM	O=C(NO)C1(S(=O)(=O)c2ccc(OCCCc3ccnc(-c4ccccc4)c3)cc2)CCOCC1 [Example 197]	–
6.87 µM	22.4 nM	O=C(CCCOc1ccc(S(=O)(=O)C2(C(=O)NO)CCOCC2)cc1)Nc1ccc(OC(F)(F)F)cc1 [Example 228]	–
5.03 µM	10.4 nM	Cc1cc(OC(F)(F)F)ccc1NC(=O)CCCOc1ccc(S(=O)(=O)C2(C(=O)NO)CCOCC2)cc1 [Example 229]	–
> 10 µM	333 nM	CN(C(=O)CCCOc1ccc(S(=O)(=O)C2(C(=O)NO)CCOCC2)cc1)c1ccc(OC(F)(F)F)cc1 [Example 249]	–
4.41 µM	3.12 nM	O=C(CCCOc1ccc(S(=O)(=O)C2(C(=O)NO)CCOCC2)cc1)Nc1ccc(OC(F)(F)F)cc1 [Example 250]	–
> 10 µM	1010 nM	Cc1cc(NC(=O)CCCOc2ccc(S(=O)(=O)C3(C(=O)NO)CCOCC3)cc2)ccc1OC(C)C [Example 290]	–

Further lines, the compound ahead of its results:

SMILES	IC50 (Human recombinant MMP-1; value outside parenthesis)	Ki (Human recombinant MMP-2; value in parenthesis)	other results
O=C(NO)C1(S(=O)(=O)c2ccc(OCCCc3nc(-c4ccc(OC(F)(F)F)cc4)no3)cc2)CCN(C2CC2)CC1 [Example 51, 1-cyclopropyl-N-hydroxy-4-{[4-(3-{3-[4-(trifluoromethoxy)phenyl]-1,2,4-oxadiazol-5-yl}propoxy)phenyl]sulfonyl}piperidine-4-carboxamide Hydrochloride]	–	–	IC50 (Human recombinant MMP-1; [1]): > 10 µM; Ki (Human recombinant MMP-2; [2]): 93.7 nM
O=C(NO)C1(S(=O)(=O)c2ccc(OCCCn3nnc(-c4ccc(OC(F)(F)F)cc4)n3)cc2)CCN(CC2CC2)CC1 [Example 53]	–	–	IC50 (Human recombinant MMP-1; [1]): > 10 µM; Ki (Human recombinant MMP-2; [2]): 697 nM
O=C(NO)C1(S(=O)(=O)c2ccc(OCCCc3cccc(Cc4ccccc4)c3)cc2)CCOCC1 [Example 98]	> 10 µM	625 nM	–
O=C(NO)C1(S(=O)(=O)c2ccc(OCCc3cccc(-c4ccccc4F)c3)cc2)CCOCC1 [Example 115]	> 10 µM	807 nM	–
O=C(NO)C1(S(=O)(=O)c2ccc(OCCc3cccc(-c4ccc(F)cc4)c3)cc2)CCOCC1 [Example 123]	> 10 µM	793 nM	–
O=C(NO)C1(S(=O)(=O)c2ccc(OCCCc3cccc(-c4ccc(F)cc4)c3)cc2)CCN(C2CC2)CC1 [Example 139]	> 10 µM	1410 nM	–
COCCN1CCC(C(=O)NO)(S(=O)(=O)c2ccc(OCCCc3cccc(-c4ccc(F)cc4)c3)cc2)CC1 [Example 140]	> 10 µM	708 nM	–
COCCN1CCC(C(=O)NO)(S(=O)(=O)c2ccc(OCCCc3nc(-c4ccccc4OC(F)(F)F)no3)cc2)CC1 [Example 152]	> 10 µM	149 nM	–
CCc1ccccc1-c1noc(CCCOc2ccc(S(=O)(=O)C3(C(=O)NO)CCN(CCOC)CC3)cc2)n1 [Example 155]	> 10 µM	37.9 nM	–
COCCN1CCC(C(=O)NO)(S(=O)(=O)c2ccc(OCCCc3nc(-c4ccc(CC(C)C)cc4)no3)cc2)CC1 [Example 175]	> 10 µM	872 nM	–
COCCN1CCC(C(=O)NO)(S(=O)(=O)c2ccc(OCCCc3nnc(-c4ccccc4C(F)(F)F)o3)cc2)CC1 [Example 178]	> 10 µM	39.3 nM	–
COCCN1CCC(C(=O)NO)(S(=O)(=O)c2ccc(OCCCc3nc(-c4ccc(OC(F)(F)F)cc4)no3)cc2)CC1 [Example 190]	> 10 µM	283 nM	–
O=C(CCCc1ccc(S(=O)(=O)C2(C(=O)NO)CCOCC2)cc1)c1cccc(-c2ccccc2)c1 [Example 219]	> 10 µM	105 nM	–
COc1ccc(/C(C#N)=C/CCCOc2ccc(S(=O)(=O)C3(C(=O)NO)CCN(C4CC4)CC3)cc2)cc1 [Example 233]	> 10 µM	60.2 nM	–
O=C(NO)C1(S(=O)(=O)c2ccc(OCCCc3cncc(-c4ccc(F)cc4)c3)cc2)CCOCC1 [Example 523]	–	–	IC50 (Human recombinant MMP-1; value outside parentheses): 8.07 µM; Ki (Human recombinant MMP-2; value in parentheses): 197 nM
